Measurements from PMC4502315, “High Potency of a Novel Resveratrol Derivative, 3,3′,4,4′-Tetrahydroxy-trans-stilbene, against Ovarian Cancer Is Associated with an Oxidative Stress-Mediated Imbalance between DNA Damage Accumulation and Repair” (Oxidative Medicine and Cellular Longevity, 2015).

Columns and labels:
Type in all cases: cell-based, human
[1] = LDH release assay, HPMCs; conditions: human, percentage of control cells
[2] = LDH release assay, HOSE cells; conditions: human, percentage of control cells
[3] = system: DNA glycosylase I (hOgg1); assay: DNA glycosylase I (hOgg1) mRNA expression (RT-PCR), ovarian cancer cells; conditions: all three cancer cell lines; after preincubation with stilbene, 24-h recovery
Experimental: Oxidative DNA damage was assessed by measuring the 8-OH-dG concentration with a competitive immunoassay (Cell Biolabs Inc.), as per manufacturer's instructions. The efficiency of 8-OH-dG repair was estimated after cell recovery for 24 h in standard growth medium. In order to examine the activity of DNA glycosylase I, reverse transcription PCR was performed. RNA extraction was carried out using the RNA Bee (Tel-Test, Friendswood, Texas, USA) and purified according to the manufacturer's protocol. One microgram of RNA was reverse transcribed into cDNA with random hexamer primers, and cDNA was subjected to PCR. The profile of the replication cycles was denaturation at 94°C for 50 s, annealing at 58°C for 50 s, and polymerization at 72°C for 1 min. In each reaction, the expression of glyceraldehyde-3-phosphate dehydrogenase (GAPDH) served as the internal control. The primers used for PCR were as follows: hOGG1 forward, 5′-[…]-3′; hOGG1 reverse, 5′-TAGCCCGCCCTGTTCTTC-3′ designed to amplify a 551-bp region; GAPDH forward, 5′-CCATGGAGAAGGCTGGGG-3′; and GAPDH reverse 5′-[…]-3′ designed to amplify a 194-bp region (total number of cycles: 28). The PCR products were separated on 3% agarose gels stained with ethidium bromide and then visualized.

[4] = MTT viability assay, HOSE cells; conditions: human, percentage of control cells
Experimental: (§1) Cell viability was assessed with the MTT test and with lactate dehydrogenase (LDH) release assay. As per the MTT method, normal and cancer cells were seeded into 96-well plates at high density and allowed to attach overnight. Then they were incubated in a medium containing 1.25 mg/mL of the MTT salt [3-(4,5-dimethylthiazol-2-yl)-2,5-diphenyltetrazolium bromide] for 24 h at 37°C. The generated formazan was solubilized with 20% sodium dodecyl sulphate and 50% N,N-dimethylformamide. Absorbance of the converted dye was recorded at 595 nm with a reference wavelength of 690 nm.
(§2) In order to examine the effect of 3,3′,4,4′-THS on the viability of ovarian cancer cells and to compare its activity with RVT, subconfluent cultures of A2780, OVCAR-3, and SKOV-3 cells were subjected to a wide range of stilbene concentrations (0–500 μM) for 24 h; then MTT and LDH release assays were performed.

[5] = MTT viability assay, HPMCs; conditions: human, percentage of control cells
Experimental: as §1, §2

In the case of `Oc1ccc(/C=C/c2ccc(O)c(O)c2)cc1O` [3,3′,4,4′-THS, 3,3′,4,4′-tetrahydroxy-trans-stilbene], the viability at 24 h, 10 µM ([1]; 10 μM) is reported as 101 ± 2%, the viability at 24 h, 50 µM ([1]; 50 μM) is reported as 100 ± 4% and the viability at 24 h, 100 µM ([1]; 100 μM) is reported as 102 ± 2%. For the same molecule, the viability at 24 h, 10 µM ([2]; 10 μM) was 101 ± 2%, the viability at 24 h, 50 µM ([2]; 50 μM) was 100 ± 4% and the viability at 24 h, 100 µM ([2]; 100 μM) was 102 ± 2%. For the same molecule, the “hOgg1 mRNA expression during recovery, in words” value [3] was “remarkably lower as compared to values characterizing cells subjected to RVT”, the viability at 24 h, 10 µM ([4]; 10 μM) was 105 ± 2% and the viability at 24 h, 50 µM ([4]; 50 μM) was 100 ± 4%. The viability at 24 h, 100 µM ([4]; 100 μM) was 107 ± 2%, the viability at 24 h, 10 µM ([5]; 10 μM) was 108 ± 14% and the viability at 24 h, 50 µM ([5]; 50 μM) was 100 ± 4%. It also gave a viability at 24 h, 100 µM ([5]; 100 μM) of 102 ± 2%.
